Test results reported in PMC12715762, “Discovery of VU6052254: A Novel, Potent M1 Positive Allosteric Modulator” (ACS Chemical Neuroscience, 2025).
Converted amounts (≈) assume the structure as drawn.

Key:
[1] = predicted hepatic clearance, hepatic microsomes (human); assay type: in vitro ADME; conditions: human (h)
Method: (§1) After a 5 min preincubation, the reaction was initiated by the addition of NADPH (1 mM). At selected time intervals (0, 3, 7, 15, 25, and 45 min), aliquots were taken and subsequently placed into a 96-well plate containing cold acetonitrile with internal standard (50 ng/mL carbamazepine). Plates were then centrifuged at 3000 rcf (4 °C) for 10 min, and the supernatant was transferred to a separate 96-well plate and diluted 1:1 with water for LC/MS/MS analysis. The in vitro half-life ( 1/2, min, Eq. 1), intrinsic clearance (CLint, mL/min/kg, Eq. 2), and subsequent predicted hepatic clearance (CLhep, mL/min/kg, Eq. 3) was determined employing the […]
(§2) where k represents the slope from linear regression analysis of the natural log percent remaining of a test compound as a function of incubation time […]
(§3) (2) CLint = in vitroT x mg microsomes x gram liver x kg body wt ascale-up factors: of 20 (human) or 45 (rat) […]
(§4) where Qh (hepatic blood flow, mL/min/kg) is 21 (human) or 70 (rat).
(§5) LC/MS/MS Bioanalysis of Samples from Plasma Protein Binding and Intrinsic Clearance […]
(§6) Samples were analyzed on a Thermo Electron TSQ Quantum Ultra triple quad mass spectrometer (San Jose, CA) via electrospray ionization (ESI) with two Themo Electron Accella pumps (San Jose, CA), and a Leap Technologies CTC PAL autosampler (Carrboro, NC). […]

[2] = predicted hepatic clearance (dog); assay type: in vitro ADME; conditions: dog (d)
Method: as §1, §2, §3, §4, §5, §6

[3] = predicted hepatic clearance (cyno); assay type: in vitro ADME; conditions: cyno (c)
Method: as §1, §2, §3, §4, §5, §6

[4] = solubility in simulated intestinal fluid (FaSSIF); assay type: physicochemical
[5] = solubility in simulated gastric fluid (FaSSGF); assay type: physicochemical; conditions: fassgf or other biorelevant
CYP 2B6 = CYP 2B6 (Homo sapiens, UniProt P20813); experiment: CYP450 inhibition; assay type: in vitro ADME
[6] = IV/PO pharmacokinetics (rat); assay type: in vivo; conditions: Rat (SD)
multispecies PK, summary = assay type: in vivo; conditions: rat, dog, NHP, plasma, across nonclinical species
[7] = satellite IP PK study, brain exposure; assay type: in vivo; conditions: C57Bl6 mice, 30% captisol
Excerpt: These effects were absent when performed in M1 KO mice, confirming that these AEs are in fact M1-mediated. […] Total brain drug levels correlate better with PD efficacy ,− , versus free drug levels in brain, as the arbitrarily selected EC20 value for the in vitro PAM EC50 potency determination likely underestimates endogenous ACh tone. Thus, there is a significant therapeutic index for PAM 7 from this assay, and robust target-mediated convulsions were not present. To assess peripheral cholinergic toxicity, a modified Irwin neurological battery was performed to score autonomic or somatosensory side effects (Figure ). […] Still, if the dose and exposure required for efficacy afforded the appropriate therapeutic window, then PAM 7 could still advance.

[8] = human PK and dose predictions (geometric mean of six methods)
Method: The predicted dose for 7 ranged from 32 to 84 mg QD. Based on this analysis, PAM 7 was advanced to safety and ADME studies.

Adenosine A2A = Adenosine A2A (Homo sapiens, UniProt P29274); experiment: Eurofins radioligand binding
Adrenergic β2 = Adrenergic β2 (Homo sapiens, UniProt P07550); experiment: Eurofins radioligand binding
Adrenergic β2, sequence (P07550 whole entry): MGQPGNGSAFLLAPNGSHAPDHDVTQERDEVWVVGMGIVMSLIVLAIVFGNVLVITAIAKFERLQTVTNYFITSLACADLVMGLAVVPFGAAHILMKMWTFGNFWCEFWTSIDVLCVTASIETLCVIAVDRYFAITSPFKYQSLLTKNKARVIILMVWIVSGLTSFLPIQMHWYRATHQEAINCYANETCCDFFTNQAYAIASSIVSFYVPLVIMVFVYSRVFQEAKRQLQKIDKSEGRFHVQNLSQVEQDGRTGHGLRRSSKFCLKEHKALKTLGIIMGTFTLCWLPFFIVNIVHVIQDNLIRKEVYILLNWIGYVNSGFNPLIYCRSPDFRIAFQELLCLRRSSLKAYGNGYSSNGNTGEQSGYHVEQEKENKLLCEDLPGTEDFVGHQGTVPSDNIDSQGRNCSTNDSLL

Dopamine D1 = Dopamine D1 (Homo sapiens, UniProt P21728); experiment: Eurofins radioligand binding
Dopamine D3 = Dopamine D3 (Homo sapiens, UniProt P35462); experiment: Eurofins radioligand binding
Dopamine D3, sequence (P35462 whole entry): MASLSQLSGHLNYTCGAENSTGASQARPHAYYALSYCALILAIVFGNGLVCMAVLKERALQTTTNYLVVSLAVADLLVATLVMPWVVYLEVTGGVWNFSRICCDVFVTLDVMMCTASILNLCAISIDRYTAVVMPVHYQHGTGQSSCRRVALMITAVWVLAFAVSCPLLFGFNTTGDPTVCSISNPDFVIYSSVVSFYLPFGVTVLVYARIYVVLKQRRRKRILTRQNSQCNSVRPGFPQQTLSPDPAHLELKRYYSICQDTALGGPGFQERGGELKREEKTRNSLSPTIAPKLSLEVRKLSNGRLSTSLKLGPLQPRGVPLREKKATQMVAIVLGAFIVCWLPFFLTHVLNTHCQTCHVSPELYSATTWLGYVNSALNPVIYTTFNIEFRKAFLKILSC

Glutamate, NMDA, Agonism = experiment: Eurofins radioligand binding; conditions: Rat
Histamine H2 = Histamine H2 (Homo sapiens, UniProt P25021); experiment: Eurofins radioligand binding
Histamine H2, sequence (P25021 whole entry): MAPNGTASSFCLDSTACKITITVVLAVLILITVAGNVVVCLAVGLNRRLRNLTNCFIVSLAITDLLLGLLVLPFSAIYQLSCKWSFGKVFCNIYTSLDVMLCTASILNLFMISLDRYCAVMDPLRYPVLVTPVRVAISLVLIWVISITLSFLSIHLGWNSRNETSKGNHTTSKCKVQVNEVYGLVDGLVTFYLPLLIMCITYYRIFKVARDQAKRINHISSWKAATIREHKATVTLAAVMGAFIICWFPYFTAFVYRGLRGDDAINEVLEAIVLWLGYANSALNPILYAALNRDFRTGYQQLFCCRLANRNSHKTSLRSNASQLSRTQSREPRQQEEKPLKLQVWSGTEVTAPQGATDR

Histamine H3 = Histamine H3 (Homo sapiens, UniProt Q9Y5N1); experiment: Eurofins radioligand binding
Histamine H3, sequence (Q9Y5N1 whole entry): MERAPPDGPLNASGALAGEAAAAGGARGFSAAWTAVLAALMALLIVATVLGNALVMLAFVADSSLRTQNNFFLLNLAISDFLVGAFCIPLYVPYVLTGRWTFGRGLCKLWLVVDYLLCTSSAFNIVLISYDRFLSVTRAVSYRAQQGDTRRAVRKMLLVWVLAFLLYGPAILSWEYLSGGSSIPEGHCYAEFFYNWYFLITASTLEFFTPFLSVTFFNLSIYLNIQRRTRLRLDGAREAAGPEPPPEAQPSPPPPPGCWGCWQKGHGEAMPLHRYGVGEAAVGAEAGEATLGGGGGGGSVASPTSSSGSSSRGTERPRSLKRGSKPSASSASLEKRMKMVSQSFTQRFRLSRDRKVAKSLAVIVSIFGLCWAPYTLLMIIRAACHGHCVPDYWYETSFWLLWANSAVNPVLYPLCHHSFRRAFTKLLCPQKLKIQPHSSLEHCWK

Muscarinic M3 = Muscarinic M3 (Homo sapiens, UniProt P20309); experiment: Eurofins radioligand binding
Muscarinic M3, sequence (P20309 whole entry): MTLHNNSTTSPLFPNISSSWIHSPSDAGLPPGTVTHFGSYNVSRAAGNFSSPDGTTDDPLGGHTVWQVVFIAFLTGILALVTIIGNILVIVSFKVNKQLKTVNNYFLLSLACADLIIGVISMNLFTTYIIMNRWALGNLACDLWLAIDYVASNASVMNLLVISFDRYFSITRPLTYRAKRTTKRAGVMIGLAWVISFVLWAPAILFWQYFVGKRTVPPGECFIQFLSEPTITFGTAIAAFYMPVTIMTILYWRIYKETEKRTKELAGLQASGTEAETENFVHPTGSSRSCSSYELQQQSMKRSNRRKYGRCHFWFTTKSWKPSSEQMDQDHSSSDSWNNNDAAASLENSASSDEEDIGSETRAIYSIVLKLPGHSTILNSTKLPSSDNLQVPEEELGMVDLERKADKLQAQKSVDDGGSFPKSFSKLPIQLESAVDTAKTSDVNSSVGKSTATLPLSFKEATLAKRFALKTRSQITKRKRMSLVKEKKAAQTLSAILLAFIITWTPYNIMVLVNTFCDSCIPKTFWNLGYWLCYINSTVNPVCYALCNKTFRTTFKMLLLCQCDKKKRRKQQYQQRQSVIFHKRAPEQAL

[9] = target: Nicotinic Acetylcholine α3β4 (Homo sapiens, UniProt P30926+P32297); experiment: Eurofins radioligand binding
Nicotinic Acetylcholine α3β4, sequence (P32297 32-505): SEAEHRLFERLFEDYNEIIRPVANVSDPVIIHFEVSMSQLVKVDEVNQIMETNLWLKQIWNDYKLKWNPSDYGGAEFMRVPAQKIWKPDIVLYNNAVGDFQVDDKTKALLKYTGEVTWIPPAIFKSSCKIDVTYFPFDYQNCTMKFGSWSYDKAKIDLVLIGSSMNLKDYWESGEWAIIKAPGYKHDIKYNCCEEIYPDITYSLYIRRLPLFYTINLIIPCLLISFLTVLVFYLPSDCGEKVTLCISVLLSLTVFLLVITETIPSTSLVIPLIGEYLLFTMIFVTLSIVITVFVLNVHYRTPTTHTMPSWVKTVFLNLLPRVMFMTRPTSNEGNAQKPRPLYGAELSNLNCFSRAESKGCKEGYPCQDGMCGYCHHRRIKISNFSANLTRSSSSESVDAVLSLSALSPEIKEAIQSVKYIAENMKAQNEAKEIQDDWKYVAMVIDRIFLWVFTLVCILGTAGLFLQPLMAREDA
Nicotinic Acetylcholine α3β4, sequence (P30926 22-498): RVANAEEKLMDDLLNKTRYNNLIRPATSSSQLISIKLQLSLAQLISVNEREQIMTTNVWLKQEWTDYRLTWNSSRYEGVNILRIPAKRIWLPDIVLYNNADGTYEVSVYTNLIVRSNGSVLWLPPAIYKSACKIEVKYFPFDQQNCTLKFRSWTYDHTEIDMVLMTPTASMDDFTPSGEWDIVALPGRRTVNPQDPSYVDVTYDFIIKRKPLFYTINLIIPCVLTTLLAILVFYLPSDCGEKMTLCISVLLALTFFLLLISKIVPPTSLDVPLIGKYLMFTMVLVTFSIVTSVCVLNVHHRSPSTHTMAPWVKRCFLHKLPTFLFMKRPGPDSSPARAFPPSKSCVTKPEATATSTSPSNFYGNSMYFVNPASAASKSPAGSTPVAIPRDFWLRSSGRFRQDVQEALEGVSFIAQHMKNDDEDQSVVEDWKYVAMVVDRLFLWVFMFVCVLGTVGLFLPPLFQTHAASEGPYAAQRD

hERG potassium channel = hERG potassium channel (Homo sapiens, UniProt Q12809); experiment: Eurofins radioligand binding
hERG potassium channel, sequence (Q12809 whole entry): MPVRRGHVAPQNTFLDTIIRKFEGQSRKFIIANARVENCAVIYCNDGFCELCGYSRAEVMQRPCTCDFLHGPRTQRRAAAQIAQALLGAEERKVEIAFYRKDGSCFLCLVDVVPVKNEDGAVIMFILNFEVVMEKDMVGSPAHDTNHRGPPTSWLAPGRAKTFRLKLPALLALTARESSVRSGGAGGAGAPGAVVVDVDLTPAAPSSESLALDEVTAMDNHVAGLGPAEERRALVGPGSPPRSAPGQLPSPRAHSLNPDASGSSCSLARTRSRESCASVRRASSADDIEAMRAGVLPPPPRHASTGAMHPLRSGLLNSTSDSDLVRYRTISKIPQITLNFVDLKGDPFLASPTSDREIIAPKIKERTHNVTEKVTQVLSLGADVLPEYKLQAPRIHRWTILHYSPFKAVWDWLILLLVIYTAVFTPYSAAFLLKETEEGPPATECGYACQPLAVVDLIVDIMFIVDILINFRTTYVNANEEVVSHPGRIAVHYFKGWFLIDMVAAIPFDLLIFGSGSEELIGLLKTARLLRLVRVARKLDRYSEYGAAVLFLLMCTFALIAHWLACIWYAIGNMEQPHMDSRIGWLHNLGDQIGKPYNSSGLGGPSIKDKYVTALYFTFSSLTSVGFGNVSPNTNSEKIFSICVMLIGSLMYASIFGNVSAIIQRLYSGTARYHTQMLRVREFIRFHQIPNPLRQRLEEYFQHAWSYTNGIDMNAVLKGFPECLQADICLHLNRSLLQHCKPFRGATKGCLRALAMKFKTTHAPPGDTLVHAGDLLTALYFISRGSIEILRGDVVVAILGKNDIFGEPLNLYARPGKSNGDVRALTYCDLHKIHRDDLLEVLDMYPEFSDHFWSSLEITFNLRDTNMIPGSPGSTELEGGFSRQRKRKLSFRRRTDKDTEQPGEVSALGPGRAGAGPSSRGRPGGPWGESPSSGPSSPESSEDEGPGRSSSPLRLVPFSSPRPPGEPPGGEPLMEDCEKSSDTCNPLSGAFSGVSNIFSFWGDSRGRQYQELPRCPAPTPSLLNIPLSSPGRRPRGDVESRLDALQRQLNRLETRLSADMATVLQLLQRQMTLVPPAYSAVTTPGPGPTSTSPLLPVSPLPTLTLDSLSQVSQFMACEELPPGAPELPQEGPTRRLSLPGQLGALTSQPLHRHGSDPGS

[10] = target: Transporter, Serotonin (SERT) (Homo sapiens, UniProt P31645); experiment: Eurofins radioligand binding
Transporter, Serotonin (SERT), sequence (P31645 whole entry): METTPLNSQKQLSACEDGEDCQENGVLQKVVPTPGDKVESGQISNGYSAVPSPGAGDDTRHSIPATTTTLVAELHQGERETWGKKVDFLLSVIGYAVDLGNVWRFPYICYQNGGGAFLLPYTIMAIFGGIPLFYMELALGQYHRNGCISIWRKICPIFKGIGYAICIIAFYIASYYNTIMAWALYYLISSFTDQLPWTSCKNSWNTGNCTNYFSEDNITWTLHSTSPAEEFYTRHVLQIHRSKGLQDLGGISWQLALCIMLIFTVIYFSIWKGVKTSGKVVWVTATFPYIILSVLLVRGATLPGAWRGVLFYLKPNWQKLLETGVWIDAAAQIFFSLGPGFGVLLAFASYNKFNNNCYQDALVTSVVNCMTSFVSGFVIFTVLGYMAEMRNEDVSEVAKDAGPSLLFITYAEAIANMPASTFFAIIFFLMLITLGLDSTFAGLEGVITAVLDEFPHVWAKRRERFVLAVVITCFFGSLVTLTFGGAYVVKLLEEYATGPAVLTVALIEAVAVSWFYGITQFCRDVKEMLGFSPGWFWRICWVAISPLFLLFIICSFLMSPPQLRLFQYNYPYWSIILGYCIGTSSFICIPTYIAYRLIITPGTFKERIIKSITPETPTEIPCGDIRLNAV

In the case of `Cn1cc2c(-c3cc(F)c(CN4Cc5ncccc5C4=O)c(F)c3)cccc2n1` [compound 1, reference compound], the “Predicted CLhep” value [1] is reported as 1.3 mL/min/kg, the “Predicted CLhep” value [2] is reported as 5.5 mL/min/kg and the “Predicted CLhep” value [3] is reported as 5.6 mL/min/kg. The solubility [4] was 7 µg/mL (≈ 17.9 µM) and the solubility [5] was 36 µg/mL (≈ 92.2 µM).

With `Cn1cc2c(-c3cc(F)c(CN4Cc5ncccc5C4=O)c(F)c3)ccc(C(C)(C)O)c2n1` [compound 7] the “Predicted CLhep” value [1] was 12.8 mL/min/kg, the “Predicted CLhep” value [2] was 8.0 mL/min/kg and the “Predicted CLhep” value [3] was 17.7 mL/min/kg. The IC50 (CYP 2B6) was over 30 µM, the solubility [4] was 11 µg/mL (≈ 24.5 µM) and the solubility [5] was 24.8 µg/mL (≈ 55.3 µM). The “F (%) po” value ([6]; 10 mg/kg po, 10 mg/kg) was over 100%, the clearance ([6]; Sprague-Dawley, plasma, 1 mg/kg iv, read-out: CLp) was 5.8 mL/min/kg and the half-life ([6]; Sprague-Dawley, plasma, 1 mg/kg iv, read-out: Elimination t1/2 (converted)) was 3.7 h. The Vd ([6]; Sprague-Dawley, plasma, 1 mg/kg iv, read-out: Vss) was 1.3 L/kg, the AUC ([6]; Sprague-Dawley, plasma, 10 mg/kg po) was 110 µM·h and the Cmax ([6]; plasma, 10 mg/kg po) was 15.9 µM. The Tmax ([6]; plasma, 10 mg/kg po) was 1 h, the bioavailability (multispecies PK, summary; read-out: %F, multispecies) was over 65% and the clearance (multispecies PK, summary; read-out: Clp s, multispecies) was under 10 mL/min/kg. The total brain exposure ([7]; 56.6 mg/kg IP) was 29.8 µM, the total brain exposure ([7]; 100 mg/kg IP) was 42.2 µM and the predicted human dose ([8]; QD) was 32 to 84 mg. The “predicted human CLp” value ([8]; geometric mean of six methods) was 2.6 mL/min/kg, the “predicted human Vss” value ([8]; geometric mean of six methods) was 1.16 L/kg and the “predicted human oral bioavailability” value ([8]; geometric mean of six methods) was 79%. The “predicted human t1/2” value ([8]; geometric mean of six methods) was 5.1 h, the inhibition at 10 µM (Adenosine A2A) was 3% and the inhibition at 10 µM (Adrenergic β2) was -4%. For the same compound, the inhibition at 10 µM (Dopamine D1) was 6%, the inhibition at 10 µM (Dopamine D3) was -10% and the “% Inhibition at 10 µM” value (Glutamate, NMDA, Agonism) was -3%. For the same compound, the inhibition at 10 µM (Histamine H2) was 2%, the inhibition at 10 µM (Histamine H3) was -11% and the inhibition at 10 µM (Muscarinic M3) was 7%. It also gave an inhibition at 10 µM [9] of 4%, an inhibition at 10 µM (hERG potassium channel) of 2% and an inhibition at 10 µM [10] of -1%.
